Data taken from patent US5516936A, “Inhibitors of kynureninase” (University of Georgia Research Foundation, Inc., priority 1993, dated 1996).
Read-outs that look alike come from different tables or passages of the source.

What was measured:
[1] = molecular target: T1, rat liver kynureninase (Rattus norvegicus, UniProt P70712); conditions: Wiss and Fuchs (1950); cited from earlier work
T1 construct: host or cells: rat liver
T1 sequence (P70712 1-464): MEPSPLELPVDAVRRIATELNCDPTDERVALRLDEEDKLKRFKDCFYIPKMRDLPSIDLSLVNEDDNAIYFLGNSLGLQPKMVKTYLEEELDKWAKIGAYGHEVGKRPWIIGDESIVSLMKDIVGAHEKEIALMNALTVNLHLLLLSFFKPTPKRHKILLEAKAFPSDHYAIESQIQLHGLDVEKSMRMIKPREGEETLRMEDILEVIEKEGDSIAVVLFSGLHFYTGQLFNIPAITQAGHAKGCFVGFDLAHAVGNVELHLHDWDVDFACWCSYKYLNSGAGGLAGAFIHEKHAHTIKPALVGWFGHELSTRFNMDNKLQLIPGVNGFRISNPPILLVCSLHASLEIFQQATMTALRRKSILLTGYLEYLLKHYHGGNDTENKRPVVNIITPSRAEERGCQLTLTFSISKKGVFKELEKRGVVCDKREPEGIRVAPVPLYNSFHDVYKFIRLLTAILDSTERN

[2] = system: bacterial kynureninase; conditions: cited from earlier work; for inhibition of bacterial kynureninase (in words): Tanizawa and Soda (1979)
[3] = system: rat renal C-S lyase; conditions: kidney slice methodology; cited from earlier work
[4] = molecular target: T2, Kynureninase (Pseudomonas fluorescens, UniProt P83788); assay: Competitive inhibition of kynureninase by S-aryl cysteines and S-aryl cysteine sulfones; format: biochemical; conditions: for Ki: Table 1; for inhibition (in words): bacterial kynureninase; for fold decrease in Ki value: relative to unsubstituted S-phenyl-L-cysteine
T2 construct: Bacterial kynureninase was prepared from cells of Pseudomonas fluorescens; endogenous in cells; partially purified by DEAE-cellulose and ammonium sulfate
T2 sequence (P83788 1-416): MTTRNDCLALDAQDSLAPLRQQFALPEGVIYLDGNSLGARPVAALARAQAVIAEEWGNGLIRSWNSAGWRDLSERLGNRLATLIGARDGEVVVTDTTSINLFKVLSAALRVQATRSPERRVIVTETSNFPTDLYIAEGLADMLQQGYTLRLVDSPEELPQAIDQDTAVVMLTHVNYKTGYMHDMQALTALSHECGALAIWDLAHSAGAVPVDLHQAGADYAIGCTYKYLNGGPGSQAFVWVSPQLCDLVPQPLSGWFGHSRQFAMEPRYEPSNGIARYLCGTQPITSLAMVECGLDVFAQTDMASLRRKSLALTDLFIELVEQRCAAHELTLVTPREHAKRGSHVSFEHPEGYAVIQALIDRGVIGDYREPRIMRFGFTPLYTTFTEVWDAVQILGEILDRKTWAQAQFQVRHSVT
Procedure: Bacterial kynureninase was prepared from cells of Pseudomonas fluorescens (ATCC 11250, for example) essentially as described by .Hayaishi and Stanier (1952) J. Biol. Chem. 195:735-740. Cells were grown on a minimal medium containing 0.1% L-tryptophan as the sole carbon and nitrogen source.
From 100 1 of medium, grown for 18 h at 30° C. 230 g of wet cell paste was obtained. The cells were suspended in 1 of 0.01M potassiumphosphate, pH 7.0, and disrupted by 2 passages through a Manton-Gaulin homogenizer. After centrifugation of the cell extract for 1 h at 10000 g, the enzyme was partially purified by ion-exchange chromatography on DEAE-cellulose and ammonium sulfate precipitation.
Kynureninase activity was measured at 25° C. by following the decrease in absorbance at 360 nm (ε=-4500M^-1 cm^-1). A typical assay mixture contained 0.4 mM L-kynurenine in 0.04M potassium phosphate, pH 7.8, containing 40 μM pyridoxal-5'-phosphate, at 25° C. The reactions of S-aryl cysteines and S-aryl cysteine sulfones with kynureninase were performed using a spectrophotometric coupled assay with lactate dehydrogenase and NADH, by monitoring a decrease in absorbance due to pyruvate formation. A typical assay mixture contained 30 μl lactate dehydrogenase solution (2 mg/ml), 0.1 mM NADH, 40 μM pyridoxal-5'-phosphate, 0.04M tris.HCl buffer, pH 7.8, with varying concentrations of the compounds. The competitive inhibition of these compounds was measured by variation of L-kynurenine concentrations at several fixed values of the inhibitor. Km and Vmax values were calculated by fitting of initial rate data to the Michaelis-Menten equation with ENZFITTER (Elsevier) on a Z-286 personal computer. KI values were determined from the equation:
v=Vmax[S]/ (Km (1+[I]/Ki)+[S]

[5] = system: bacterial kynureninase; conditions: Kishore (1984); cited from earlier work
[6] = system: kynureninase of P. fluorescens; conditions: cited from earlier work
[7] = system: bacterial kynureninase; conditions: Hayaishi (1955); cited from earlier work
[8] = competitive inhibition vs L-kynurenine, pH 7.8, 25° C., footnote 1: 0.07 is an upper limit, read-out: Ki

For `CC(=O)CC(N)C(=O)O` (centres unmarked) [2-aminolevulinic acid], the “reaction with rat liver kynureninase to produce alanine (in words)” value (from here on “reaction with rat liver kynureninase”) [1] is listed as “reacted with rat liver kynureninase”.

For `Nc1ccccc1C=O` [o-aminobenzaldehyde], the “inhibition of bacterial kynureninase (in words)” value [2] is given as “strongly inhibited” and the Ki ([2]; non-competitive inhibition) is given as 6.5 µM.

In the case of `CC(=O)N[C@@H](CSc1ccc([N+](=O)[O-])c([N+](=O)[O-])c1)C(=O)O` [N-acetyl-S-(3,4-dinitrophenyl)-L-cystsine], the “inhibition of C-S lyase (in words)” value [3] is given as “inhibit”.

In the case of `Nc1ccc(SC[C@H](N)C(=O)O)cc1`, the Ki [4, 8] is reported as 140 µM.

In the case of `N[C@@H](CSc1c([N+](=O)[O-])cccc1[N+](=O)[O-])C(=O)O` [S-(2,6-dinitrophenyl)-L-cysteine], the “inhibition of C-S lyase (in words)” value [3] is given as “inhibit”.

In the case of `N[C@@H](CCl)C(=O)O` [β-chloro-L-alanine], the “inactivation of kynureninase (in words)” value [5] is given as “inactivated kynureninase” and the “reaction with kynureninase (in words)” value [5] is given as “react with kynureninase to give pyruvate and ammonia”.

For `Nc1ccc(F)cc1C(=O)C[C@H](N)C(=O)O` [5-fluoro-L-kynurenine], the “substrate of kynureninase (in words)” value ([6]; Tanizawa and Soda (1979)) is given as “substrates”.

In the case of `NC(=O)C[C@H](N)C(=O)O` [L-asparagine], the “substrate of kynureninase (in words)” value ([6]; Tanizawa and Soda (1979)) is listed as “not substrates”.

In the case of `N[C@@H](COS(=O)(=O)O)C(=O)O` [L-serine O-sulfate], the “inactivation of kynureninase (in words)” value [5] is listed as “inactivated kynureninase” and the “reaction with kynureninase (in words)” value [5] is listed as “react with kynureninase to give pyruvate and ammonia”.

In the case of `COc1cccc(C(=O)C[C@H](N)C(=O)O)c1N` [3-methoxy-L-kynurenine], the “substrate of bacterial kynureninase (in words)” value [7] is given as “do not react with bacterial kynureninase”.

For `Nc1ccc(O)cc1C(=O)C[C@H](N)C(=O)O` [5-hydroxy-L-kynurenine], the “substrate of kynureninase (in words)” value ([6]; Tanizawa and Soda (1979)) is listed as “substrates” and the “substrate of bacterial kynureninase (in words)” value [7] is listed as “substrates”.

In the case of `Nc1ccccc1C(=O)C[C@H](N)C(=O)O` [L-kynurenine, α,2-diamino-γ-oxobenzenebutanoic acid], the “reaction with rat liver kynureninase” value [1] is listed as “reacted with rat liver kynureninase” and the Km ([6]; Tanizawa and Soda (1979)) is listed as 35 µM.

In the case of `N[C@@H](CS(=O)(=O)c1ccccc1[N+](=O)[O-])C(=O)O`, the Ki [4, 8] is reported as 23 µM.

In the case of `CC(O)CC(N)C(=O)O` (stereo not drawn) [α-amino-γ-hydroxypentanoic acid], the “reaction with rat liver kynureninase” value [1] is given as “reacted with rat liver kynureninase”.

For `N[C@@H](CS(=O)(=O)c1ccc([N+](=O)[O-])cc1)C(=O)O`, the Ki [4, 8] was 12 µM.

For `CC(=O)c1ccccc1N` [o-aminoacetophenone], the “inhibition of bacterial kynureninase (in words)” value [2] is given as “inhibitors”.

For `Nc1c(O)cccc1C(=O)C[C@H](N)C(=O)O` [3-hydroxy-L-kynurenine, α,2-diamino-3-hydroxy-γ-oxobenzenebutanoic acid], the “reaction with rat liver kynureninase” value [1] is listed as “reacted with rat liver kynureninase”, the Km ([6]; Tanizawa and Soda (1979)) is listed as 200 µM and the “substrate of kynureninase (in words)” value ([6]; Tanizawa and Soda (1979)) is listed as “substrates”. The “substrate of bacterial kynureninase (in words)” value [7] was “substrates”.

In the case of `CC(O)C[C@H](N)C(=O)O` (stereo partly drawn) [γ-methyl-L-homoserine], the “reaction with rat liver kynureninase” value [1] is given as “reacted with rat liver kynureninase”.

For `Nc1ccccc1C(O)C[C@H](N)C(=O)O` (stereo partly drawn) [dihydrokynurenine, α,2-diamino-γ-hydroxybenzenebutanoic acid], the Km ([6]; Tanizawa and Soda (1979)) is listed as 67 µM, the “Vmax / reactivity relative to L-kynurenine” value ([6]; Tanizawa and Soda (1979)) is listed as “about 65%” and the “substrate of kynureninase (in words)” value ([6]; Tanizawa and Soda (1979)) is listed as “substrate”.

With `Nc1ccc(S(=O)(=O)C[C@H](N)C(=O)O)cc1` the Ki [4, 8] was 8.5 µM.

In the case of `Nc1ccccc1C(=O)CCC(=O)O` [β-(o-aminobenzoyl)propanoic acid], the “substrate of bacterial kynureninase (in words)” value [7] is given as “do not react with bacterial kynureninase”.

For `Nc1cc(F)ccc1C(=O)C[C@H](N)C(=O)O` [4-fluoro-L-kynurenine], the “substrate of kynureninase (in words)” value ([6]; Tanizawa and Soda (1979)) is given as “substrates”.

In the case of `Nc1ccccc1S(=O)(=O)C[C@H](N)C(=O)O` [S-(2-aminophenyl)-L-cysteine sulfone], the Ki [4, 8] is reported as ≤ 0.07 µM, the Ki ([4]; read-out: Ki) is reported as ~0.07 µM and the “inhibition (in words)” value [4] is reported as “considerably more potent inhibitor of kynureninase”.

In the case of `N[C@@H](CSc1ccc([N+](=O)[O-])cc1)C(=O)O` [S-(4-nitrophenyl)-L-cysteine], the “inhibition of C-S lyase (in words)” value [3] is given as “inhibit”.

For `O=Cc1ccccc1` [benzaldehyde], the “inhibition of bacterial kynureninase (in words)” value [2] is given as “inhibitors”.

In the case of `N[C@@H](CC(=O)c1ccccc1O)C(=O)O` [β-(o-hydroxybenzoyl)-L-alanine], the “substrate of bacterial kynureninase (in words)” value [7] is listed as “substrates”.

In the case of `Nc1ccc(C(=O)C[C@H](N)C(=O)O)cc1` [β-(p-aminobenzoyl)-L-alanine], the “substrate of bacterial kynureninase (in words)” value [7] is listed as “do not react with bacterial kynureninase”.

In the case of `CC(=O)OC[C@H](N)C(=O)O` [o-acetyl-L-serine], the “inactivation of kynureninase (in words)” value [5] is listed as “inactivated kynureninase” and the “reaction with kynureninase (in words)” value [5] is listed as “react with kynureninase to give pyruvate and ammonia”.

For `N[C@@H](CSc1ccccc1)C(=O)O` [S-phenyl-L-cysteine], the Ki [4, 8] was 700 µM, the Ki ([4]; read-out: Ki value) was 700 µM and the “inhibition (in words)” value [4] was “very weak inhibitor”.

In the case of `O=Cc1ccccc1[N+](=O)[O-]` [o-nitrobenzaldehyde], the “inhibition of bacterial kynureninase (in words)” value [2] is given as “inhibitors”.

In the case of `Nc1ccccc1C(=O)C[C@@H](N)C(=O)O` [D-kynurenine], the “substrate of kynureninase (in words)” value ([6]; Tanizawa and Soda (1979)) is given as “not substrates”.

In the case of `N#CC[C@H](N)C(=O)O` [β-cyano-L-alanine], the “inactivation of kynureninase (in words)” value [5] is given as “inactivated kynureninase” and the “reaction with kynureninase (in words)” value [5] is given as “react with kynureninase to give pyruvate and ammonia”.

In the case of `N[C@@H](CC(=O)c1ccccc1)C(=O)O` [β-benzoyl-L-alanine], the “reaction with rat liver kynureninase” value [1] is given as “reacted with rat liver kynureninase”, the “substrate of kynureninase (in words)” value ([6]; Tanizawa and Soda (1979)) is given as “substrates” and the Km ([6]; bacterial kynureninase) is given as 160 µM. For the same compound, the “substrate of bacterial kynureninase (in words)” value [7] was “substrates”.

For `Nc1ccccc1SC[C@H](N)C(=O)O` [S-(2-aminophenyl)-L-cysteine], the Ki [4, 8] was 2.5 µM, the Ki ([4]; read-out: Ki value) was 2.2 µM and the “fold decrease in Ki value” [4] was 318 fold.

In the case of `N[C@@H](CS(=O)(=O)c1ccccc1)C(=O)O` [S-phenyl-L-cysteine sulfone], the Ki [4, 8] is reported as 3.9 µM, the Ki ([4]; read-out: Ki value) is reported as 3.9 µM and the “fold decrease in Ki value” [4] is reported as 180 fold.

For `Cc1ccc(N)c(C(=O)C[C@H](N)C(=O)O)c1` [5-methyl-L-kynurenine], the “substrate of kynureninase (in words)” value ([6]; Tanizawa and Soda (1979)) is listed as “substrates”.

For `N[C@@H](CC(=O)c1cccc(O)c1)C(=O)O` [β-(m-hydroxybenzoyl)-L-alanine], the “substrate of bacterial kynureninase (in words)” value [7] is given as “do not react with bacterial kynureninase”.

For `O=C(O)CCC(=O)c1ccccc1` [β-benzoylpropanoic acid], the “substrate of bacterial kynureninase (in words)” value [7] is listed as “do not react with bacterial kynureninase”.

In the case of `N[C@@H](CC(O)c1ccccc1)C(=O)O` (stereo partly drawn) [γ-phenyl-L-homoserine], the “reaction with rat liver kynureninase” value [1] is given as “reacted with rat liver kynureninase”.

In the case of `N[C@@H](CC(=O)c1ccccc1[N+](=O)[O-])C(=O)O` [β-(o-nitrobenzoyl)-L-alanine], the “reaction with rat liver kynureninase” value [1] is given as “did not” and the “substrate of bacterial kynureninase (in words)” value [7] is given as “do not react with bacterial kynureninase”.

In the case of `N[C@@H](CC(=O)c1ccccc1NC=O)C(=O)O` [N'-formyl-L-kynurenine], the “substrate of kynureninase (in words)” value ([6]; Tanizawa and Soda (1979)) is given as “substrates”, the Km ([6]; bacterial kynureninase) is given as 2200 µM and the “substrate of bacterial kynureninase (in words)” value [7] is given as “not a substrate”.

In the case of `N[C@@H](CSC(=O)c1ccccc1)C(=O)O` [S-benzoyl-L-cystsine], the “substrate of kynureninase (in words)” value ([6]; Tanizawa and Soda (1979)) is listed as “not substrates”.
